Results: US20250040545A1, “USE OF SYNERGISTIC COMPOSITIONS BASED ON ZOXAMIDE AND CYFLUFENAMID AS FUNGICIDES IN THE AGRONOMIC FIELD” (Gowan Crop Protection Limited, priority 2023, published 2025)
“And” between values parts separate entries of the source, which are not always exact repeats. Equal values may be shown once.

Assays:
Type in all cases: cell-based
Conditions in all cases: single active ingredient
Botrytis cinerea = experiment: In vitro antifungal synergy assay, growth inhibition in 96-well plates (absorbance), Botrytis cinerea
Experimental: (§1) Compositions consisting of the active ingredients Zoxamide (A) and Cyflufenamid (B) in different weight ratios were tested to evaluate their in vitro synergistic antifungal activity against the following phytopathogenic fungi: Botrytis cinerea, Sclerotinia minor and Venturia inaequalis by comparing them with the single active ingredients (A) and (B).
(§2) The strains in pure culture are kept and stored at 4° C. in a refrigerator on potato dextrose agar (PDA) nutrient substrates. The fungal inoculum was prepared (which, depending on the species of the pathogen, could be a suspension of conidia or a mycelial homogenate) for carrying out the synergy assays.
For the in vitro sporulating strain, i.e. Botrytis cinerea, the conidic suspension was prepared starting from a culture grown on PDA after 4-5 days of incubation in a thermostat at 24° C. to stimulate its sporulation. The conidia were collected in 1 mL of double-concentration PDB and counted under a microscope with a counting chamber to obtain a final inoculum of 4×10^4 conidia/mL.
(§3) In the compositions tested, the weight ratios of Zoxamide (A) with respect to Cyflufenamid (B) range from 500:1 to 1:100. For both molecules tested, a stock solution in dimethyl sulfoxide (DMSO) at 160,000 mg/l was prepared which was then serially diluted in sterile demineralized water to obtain the solutions to be tested at concentrations double with respect to the final doses. More specifically, the compositions of the two fungicide molecules (A) and (B) were tested following a checkerboard matrix in order to have, in this way, all possible combinations of the two fungicides within the weight ratios described above.
(§4) Synergy assays were performed in 96-well plates: 50 μl of inoculum were mixed with 50 μl of solution of the compositions consisting of the two active molecules (A) and (B) in each well using the Eppendorf Multipette® System E3 serial dispenser.
(§5) Three wells were used as replicates for each concentration/active ingredient composition.
(§6) All pathogen strains were grown in untreated control wells containing 50 μl of fungal suspension and 50 μl of sterile demineralized water. The inoculated multi-well plates are incubated at 22° C. for 72 hours or 96 or 120 depending on the type of pathogen.
(§7) The sensitivity to the molecules was evaluated as growth inhibition of the fungus and measured in terms of absorbance immediately before and after the incubation period.
(§8) The absorbance was measured for each well using the Infinite® F50 Absorbance Reader (Tecan Group Ltd) spectrophotometer at 405 nm (for mycelial inoculums) and at 492 nm (for conidic inoculums).
(§9) For each strain, the percentage of growth inhibition (GIP) caused by each of the active-ingredient concentrations was calculated using the following formula: […]
(§10) wherein At72-120 and At0 are respectively the absorbances of the treated well and of the untreated control measured at the end and at the beginning of the incubation period. GIP data were used for calculating the potential synergistic effect of the compositions tested using the formula proposed by Colby (1967):
(§11) [formula] • wherein: • GIPt=GIP expected of the active molecule A and B tested at dose p for molecule • A and dose q for molecule B: • GIPa=GIP expected from the molecule A tested at dose p; • GIPb=GIP expected from the molecule B tested at dose q.
(§12) The synergistic effect of the two molecules is indicated when the effectiveness of the mixed combination of A+B […], is higher than the expected effectiveness calculated with the Colby equation (GIPa+b/GIPt>1), as described in literature in Colby, S. R. (1967): “Calculating synergistic and antagonistic responses of herbicide combinations”, Weeds, 15 (1), pages 20-22.

Sclerotinia minor = experiment: In vitro antifungal synergy assay, growth inhibition in 96-well plates (absorbance), Sclerotinia minor
Experimental: as §1, §2
(§13) For the strains not easily sporulating in vitro, i.e. Sclerotinia minor and Venturia inaequalis, six to eight pieces of mycelium, taken from actively growing cultures, are transferred into a grinding egg containing 6 ml of double-concentration potato dextrose broth (PDB). and some metal balls. The suspension is homogenized with a Pulverisette 23 mini-mill (Fritsch GmbH).
as §3, §4, §5, §6, §7, §8, §9, §10, §11, §12

Venturia inaequalis = experiment: In vitro antifungal synergy assay, growth inhibition in 96-well plates (absorbance), Venturia inaequalis
Experimental: as §1, §2, §13, §3, §4, §5, §6, §7, §8, §9, §10, §11, §12

SMILES	Effect A, Effect B (GIP) (Botrytis cinerea; dose 1 mg/l)	Effect A, Effect B (GIP) (Botrytis cinerea; dose 10 mg/l)	Effect A, Effect B (GIP) (Botrytis cinerea; dose 50 mg/l)	Effect A, Effect B (GIP) (Botrytis cinerea; dose 100 mg/l)	Effect A, Effect B (GIP) (Sclerotinia minor; dose 0.1 mg/l)	Effect A, Effect B (GIP) (Sclerotinia minor; dose 1 mg/l)	Effect A, Effect B (GIP) (Sclerotinia minor; dose 10 mg/l)	Effect A, Effect B (GIP) (Sclerotinia minor; dose 50 mg/l)	Effect A, Effect B (GIP) (Sclerotinia minor; dose 100 mg/l)	Effect A, Effect B (GIP) (Venturia inaequalis; dose 1 mg/l)	Effect A, Effect B (GIP) (Venturia inaequalis; dose 5 mg/l)	Effect A, Effect B (GIP) (Venturia inaequalis; dose 10 mg/l)	Effect A, Effect B (GIP) (Venturia inaequalis; dose 50 mg/l)	Effect A, Effect B (GIP) (Venturia inaequalis; dose 100 mg/l)	Effect A, Effect B (GIP) (Botrytis cinerea; dose 0.1 mg/l)	Effect A, Effect B (GIP) (Botrytis cinerea; dose 5 mg/l)	Effect A, Effect B (GIP) (Sclerotinia minor; dose 5 mg/l)	Effect A, Effect B (GIP) (Venturia inaequalis; dose 0.1 mg/l)
CCC(C)(NC(=O)c1cc(Cl)c(C)c(Cl)c1)C(=O)CCl (centres unmarked) [Zoxamide]	5.6%	31.2%	47.3%	56.9%	2.5%	29.1%	37.6%	58.2%	70.3%	78.0%	78.8%	80.0%	80.1%	84.5% and 84.0%				
O=C(Cc1ccccc1)N/C(=N\OCC1CC1)c1c(C(F)(F)F)ccc(F)c1F [Cyflufenamid]	4.3%		49.4%	60.2%	3.7%	10.2%	23.4%			5.5%	10.3%	12.7%	15.2% and 12.7%	18.3% and 18.0%	1.7%	10.6%	17.8%	1.2%
